Experimental data published in patent US12285012B2, “Compositions comprising pyridine carboxylate herbicides with acetolactate synthase (ALS) inhibitor herbicides” (Corteva Agriscience LLC, priority 2018, dated 2025).
Read-outs that look alike come from different tables or passages of the source.

Legend:
[1] = test system: Canadian thistle (CIRAR, Cirsium arvense); test: Greenhouse postemergence herbicidal effect; type: in vivo
Description: (§1) The plants were grown for 7-36 days (d) in a greenhouse with an approximate 14-hour (h) photo-period which was maintained at about 23° C. during the day and 22° C. during the night. Nutrients and water were added on a regular basis and supplemental lighting was provided with overhead metal halide 1000-Watt lamps as necessary. The plants were employed for testing when they reached the second or third true leaf stage.
(§2) The emulsifiable concentrates also included a safener, cloquintocet-mexyl, at 120 grams active ingredient per liter (g ai/L), unless otherwise noted below.
(§3) Control plants were sprayed in the same manner with the solvent blank. All pyridine carboxylate herbicide (component a) application rates are given as “g ae/ha” and all ALS inhibitor (component b) application rates are given as “g ai/ha.”
(§4) The treated plants and control plants were placed in a greenhouse as described above and watered by sub-irrigation to prevent wash-off of the test compounds. After 20-22 d, the condition of the test plants as compared with that of the control plants was determined visually and scored on a scale of 0 to 100 percent where 0 corresponds to no injury and 100 corresponds to complete kill.

[2] = test system: chickweed (STEME, Stellaria media); test: Greenhouse postemergence herbicidal effect; type: in vivo
Description: as §1, §2, §3, §4

[3] = test system: pigweed (AMARE, Amaranthus retroflexus); test: Greenhouse postemergence herbicidal effect; type: in vivo
Description: as §1, §2, §3, §4

[4] = test system: wild buckwheat (POLCO, Polygonum convolvulus); test: Greenhouse postemergence herbicidal effect; type: in vivo
Description: as §1, §2, §3, §4

[5] = test system: wild chamomile (MATCH, Matricaria chamomilla); test: Greenhouse postemergence herbicidal effect; type: in vivo
Description: as §1, §2, §3, §4

[6] = test system: wild mustard (SINAR, Sinapis arvensis); test: Greenhouse postemergence herbicidal effect; type: in vivo
Description: as §1, §2, §3, §4

[7] = test system: wild pansy (VIOTR, Viola tricolor); test: Greenhouse postemergence herbicidal effect; type: in vivo
Description: as §1, §2, §3, §4

[8] = test system: winter rape (BRSNW, Brassica napus); test: Greenhouse postemergence herbicidal effect; type: in vivo
Description: as §1, §2, §3, §4

[9] = test system: common lambsquarters (CHEAL, Chenopodium album L.); test: Greenhouse postemergence herbicidal effect; type: in vivo
Description: (§5) Seeds of the desired test plant species were planted in a 90:10% v/v (volume/volume) mixture of PRO-MIX® BX (Premier Tech Horticulture, Quakertown, PA, USA) and PROFILE® GREENS GRADE™ (Profile Products LLC, Buffalo Grove, IL, USA) planting mixture, which typically has a pH of 5.2 to 6.2 and an organic matter content of at least 50 percent, in plastic pots with a surface area of 103.2 square centimeters (cm^2). […] The plants were grown for 7-36 days (d) in a greenhouse with an approximate 14-hour (h) photo-period which was maintained at about 23° C. during the day and 22° C. during the night. Nutrients and water were added on a regular basis and supplemental lighting was provided with overhead metal halide 1000-Watt lamps as necessary. The plants were employed for testing when they reached the second or third true leaf stage.
(§6) Emulsifiable concentrates of each of each pyridine carboxylate herbicide (Compound A or Compound B) were prepared at 100 grams acid equivalent per liter (g ae/L). The emulsifiable concentrates also included a safener, cloquintocet-mexyl, at 120 grams active ingredient per liter (g ai/L), unless otherwise noted below. An aliquot of each emulsifiable concentrate was placed in a 25 mL glass vial and diluted with an aqueous mixture of 1.25% (v/v) ACTIROB® B esterified rapeseed oil (Bayer Crop Science, Research Triangle Park, NC, USA) or MSO® Concentrate with LECI-TECH® methylated soybean oil (Loveland Products, Loveland, CO, USA) to obtain concentrated stock solutions at the highest application rate for each herbicide, based upon a 12 milliliter (mL) application volume at a rate of 187 liters per hectare (L/ha). The concentrated stock solutions were further diluted with an aqueous mixture of 1.25% v/v ACTIROB® B or MSO® Concentrate with LECI-TECH® to obtain stock solutions at reduced application rates for each herbicide. Spray solutions of the herbicide combinations (Compound A or Compound B plus ALS herbicide) were prepared by adding weighed amounts or aliquots of the ALS herbicides to the stock solutions of Compound A or Compound B to form 12-mL spray solutions in two- or three-way combinations.
(§7) The spray solutions were applied to the plant material with an overhead Mandel track sprayer equipped with 8002E nozzles calibrated to deliver 187 L/ha over an application area of 0.503 square meters (m^2) at a spray height of 18 inches (43 centimeters (cm)) above the average plant canopy. Control plants were sprayed in the same manner with the solvent blank. All pyridine carboxylate herbicide (component a) application rates are given as “g ae/ha” and all ALS inhibitor (component b) application rates are given as “g ai/ha.”
as §4

[10] = test system: kochia (KCHSC, Kochia scoparia); test: Greenhouse postemergence herbicidal effect; type: in vivo; details: for Obs % visual injury: KCHSC
Description: as §5, §6, §7, §4

[11] = test system: broad-leaf dock (RUMOB, Rumex obtusifolius); test: Greenhouse postemergence herbicidal effect; type: in vivo
Text: (§8) Seeds of the desired test plant species were planted in a 90:10% v/v (volume/volume) mixture of PRO-MIX® BX (Premier Tech Horticulture, Quakertown, PA, USA) and PROFILE® GREENS GRADE™ (Profile Products LLC, Buffalo Grove, IL, USA) planting mixture, which typically has a pH of 5.2 to 6.2 and an organic matter content of at least 50 percent, in plastic pots with a surface area of 103.2 square centimeters (cm^2). In some aspects, to ensure good germination and healthy plants, a fungicide treatment and/or other chemical or physical treatment was applied. The plants were grown for 7-36 days (d) in a greenhouse with an approximate 14-hour (h) photo-period which was maintained at about 23° C. during the day and 22° C. during the night. Nutrients and water were added on a regular basis and supplemental lighting was provided with overhead metal halide 1000-Watt lamps as necessary. The plants were employed for testing when they reached the second or third true leaf stage.
as §6, §7, §4

[12] = test system: common sunflower (HELAN, Helianthus annuus); test: Greenhouse postemergence herbicidal effect; type: in vivo; details: 8.75 g/ha
Text: as §8, §6, §7, §4

[13] = test system: ivyleaf morningglory (IPOHE, Ipomoea hederacea); test: Greenhouse postemergence herbicidal effect; type: in vivo; details: 8.75 g/ha
Text: as §8, §6, §7, §4

[14] = test system: soybean (GLXMA, Glycine max); test: Greenhouse postemergence herbicidal effect; type: in vivo; details: 8.75 g/ha
Text: as §8, §6, §7, §4

[15] = test system: velvetleaf (ABUTH, Abutilon theophrasti); test: Greenhouse postemergence herbicidal effect; type: in vivo; details: 8.75 g/ha
Text: as §8, §6, §7, §4

[16] = test system: Russian thistle (SASKR, Salsola kali); test: Greenhouse postemergence herbicidal effect; type: in vivo
Description: as §1, §2, §3, §4

[17] = test system: spring wheat (TRZAS); type: in vivo, Triticum aestivum; details: for Obs % visual injury: TRZAS
Description: as §1, §2, §3, §4

[18] = test system: spring barley (HORVS); type: in vivo, Hordeum vulgare
Description: as §1, §2, §3, §4

[19] = test system: large crabgrass (DIGSA, Digitaria sanguinalis); test: Greenhouse postemergence herbicidal effect; type: in vivo; details: DIGSA; Flupyrsulfuron 10 g/ha
Text: as §8, §6, §7, §4

[20] = test system: R-PAPRH = Papaver rhoeas (corn poppy), herbicide-resistant; test: Greenhouse postemergence herbicidal effect; type: in vivo; details: Pyroxsulam 10 g/ha
Description: as §1, §2, §3, §4

[21] = test system: bird's-eye speedwell (VERPE, Veronica persica); test: Greenhouse postemergence herbicidal effect; type: in vivo; details: Pyroxsulam 10 g/ha
Description: as §1, §2, §3, §4

[22] = test system: cleavers (GALAP, Galium aparine); test: Greenhouse postemergence herbicidal effect; type: in vivo; details: Pyroxsulam 10 g/ha
Description: as §1, §2, §3, §4

[23] = test system: corn poppy (PAPRH, Papaver rhoeas); test: Greenhouse postemergence herbicidal effect; type: in vivo; details: Pyroxsulam 10 g/ha
Description: as §1, §2, §3, §4

[24] = test system: cornflower (CENCY, Cyanus segetum); test: Greenhouse postemergence herbicidal effect; type: in vivo; details: Pyroxsulam 10 g/ha
Description: as §1, §2, §3, §4

[25] = test system: false chamomile (MATIN, Matricaria inodora); test: Greenhouse postemergence herbicidal effect; type: in vivo; details: Pyroxsulam 10 g/ha
Description: as §1, §2, §3, §4

[26] = test system: field chamomile (ANTAR, Anthemis arvensis); test: Greenhouse postemergence herbicidal effect; type: in vivo; details: Pyroxsulam 10 g/ha
Description: as §1, §2, §3, §4

[27] = test system: field violet (VIOAR, Viola arvensis); test: Greenhouse postemergence herbicidal effect; type: in vivo; details: Pyroxsulam 10 g/ha
Description: as §1, §2, §3, §4

[28] = test system: ivyleaf speedwell (VERHE, Veronica hederifolia); test: Greenhouse postemergence herbicidal effect; type: in vivo; details: Pyroxsulam 10 g/ha
Description: as §1, §2, §3, §4

[29] = test system: pineapple weed (MATMT, Matricaria discoidea); test: Greenhouse postemergence herbicidal effect; type: in vivo; details: Pyroxsulam 10 g/ha
Description: as §1, §2, §3, §4

[30] = test system: purple deadnettle (LAMPU, Lamium purpureum); test: Greenhouse postemergence herbicidal effect; type: in vivo; details: Pyroxsulam 10 g/ha
Description: as §1, §2, §3, §4

[31] = test system: shepherd's purse (CAPBP, Capsella bursa-pastoris); test: Greenhouse postemergence herbicidal effect; type: in vivo; details: Pyroxsulam 10 g/ha
Description: as §1, §2, §3, §4

[32] = test system: winter wheat (TRZAW); test: Greenhouse postemergence crop phytotoxicity; type: in vivo, Triticum aestivum; details: Pyroxsulam 10 g/ha
Text: as §8
as §6, with “combinations. […]” for “combinations.”
as §4

[33] = test system: winter barley (HORVW); test: Greenhouse postemergence crop phytotoxicity; type: in vivo, Hordeum vulgare; details: Pyroxsulam 10 g/ha
Text: as §8
as §6, with “combinations. […]” for “combinations.”
as §4

## CCS(=O)(=O)c1nc2ccccn2c1S(=O)(=O)NC(=O)Nc1nc(OC)cc(OC)n1 [Sulfosulfuron, sulfosulfuron]
[1]; Cirsium arvense, post-emergence, 8.75 g/ha, read-out: % visual injury, Obs
  pest or weed control at 8.75 g/ha: 5%
[1]; Sulfosulfuron 140 g/ha
  % visual injury: 45%
[2]; 8.75 g/ha
  % visual injury, Obs: 53%
[3]; 8.75 g/ha
  % visual injury, Obs: 40%
[3]; Sulfosulfuron 140 g/ha
  % visual injury: 88%
[4]; 8.75 g/ha
  % visual injury, Obs: 5%
[4]; Sulfosulfuron 140 g/ha
  % visual injury: 83%
[5]; Sulfosulfuron 140 g/ha
  % visual injury: 73%
[6]; Sulfosulfuron 140 g/ha
  % visual injury: 99%
[7]; 8.75 g/ha
  % visual injury, Obs: 55%
[8]; Sulfosulfuron 140 g/ha
  % visual injury: 98%
[9]; 8.75 g/ha
  % visual injury, Obs: 0%
[9]; Sulfosulfuron 140 g/ha
  % visual injury: 43%
[10]; Bassia scoparia, post-emergence, 8.75 g/ha, read-out: % visual injury, Obs
  pest or weed control at 8.75 g/ha: 0%
[10]; Sulfosulfuron 140 g/ha
  % visual injury: 8%
[11]; 8.75 g/ha
  % visual injury, Obs: 0%
[12]
  % visual injury, Obs: 100%
[13]
  % visual injury, Obs: 78%
[14]
  % visual injury, Obs: 85%
[15]
  % visual injury, Obs: 30%

## flupyrsulfuron
[1]; CIRAR, Flupyrsulfuron 10 g/ha
  Obs % visual injury: 84%
[16]; 10 g/ha
  % visual injury, Obs: 45%
[2]; STEME, Flupyrsulfuron 10 g/ha
  Obs % visual injury: 80%
[3]; AMARE, Flupyrsulfuron 10 g/ha
  Obs % visual injury: 97%
[4]; POLCO, Flupyrsulfuron 10 g/ha
  Obs % visual injury: 91%
[5]; 10 g/ha
  % visual injury, Obs: 83%
[7]; VIOTR, Flupyrsulfuron 10 g/ha
  Obs % visual injury: 8%
[9]; 10 g/ha
  % visual injury, Obs: 75%
[9]; CHEAL, Flupyrsulfuron 10 g/ha
  Obs % visual injury: 63%
[10]; 10 g/ha
  % visual injury, Obs: 15%
[10]; Flupyrsulfuron 10 g/ha
  Obs % visual injury: 30%
[17]; 10 g/ha
  % visual injury, Obs: 0%
[17]; Flupyrsulfuron 10 g/ha
  Obs % visual injury: 15%
[18]; 10 g/ha
  % visual injury, Obs: 8%
[11]; RUMOB, Flupyrsulfuron 10 g/ha
  Obs % visual injury: 70%
[19]
  Obs % visual injury: 0%

## pyroxsulam
[1]; Pyroxsulam 10 g/ha
  % visual injury: 75%
[1]; Pyroxsulam 15 g/ha
  % visual injury Obs: 48%
[20]
  % visual injury: 10%
[16]; Pyroxsulam 10 g/ha
  % visual injury: 100%
[21]
  % visual injury: 75%
[2]; Pyroxsulam 10 g/ha
  % visual injury: 100%
[22]
  % visual injury: 60%
[23]
  % visual injury: 5%
[24]
  % visual injury: 70%
[25]
  % visual injury: 65%
[26]
  % visual injury: 60%
[27]
  % visual injury: 80%
[28]
  % visual injury: 70%
[3]; Pyroxsulam 15 g/ha
  % visual injury Obs: 98%
[29]
  % visual injury: 50%
[30]
  % visual injury: 50%
[31]
  % visual injury: 90%
[4]; Pyroxsulam 10 g/ha
  % visual injury: 93%
[4]; Pyroxsulam 15 g/ha
  % visual injury Obs: 94%
[5]; Pyroxsulam 10 g/ha
  % visual injury: 60%
[5]; Pyroxsulam 15 g/ha
  % visual injury Obs: 53%
[6]; Pyroxsulam 10 g/ha
  % visual injury: 99%
[6]; Pyroxsulam 15 g/ha
  % visual injury Obs: 73%
[7]; Pyroxsulam 10 g/ha
  % visual injury: 85%
[8]; Pyroxsulam 10 g/ha
  % visual injury: 99%
[8]; Pyroxsulam 15 g/ha
  % visual injury Obs: 68%
[9]; Pyroxsulam 15 g/ha
  % visual injury Obs: 73%
[10]; Pyroxsulam 15 g/ha
  Obs % visual injury: 13%
  % visual injury Obs: 55%
[10]; Pyroxsulam 10 g/ha
  % visual injury: 30%
[32]
  % visual injury: 0%
[17]; Pyroxsulam 10 g/ha
  % visual injury: 0%
[17]; Pyroxsulam 15 g/ha
  % visual injury Obs: 0%
  Obs % visual injury: 0%
[18]; Pyroxsulam 10 g/ha
  % visual injury: 0%
[18]; Pyroxsulam 15 g/ha
  % visual injury Obs: 0%
[33]
  % visual injury: 0%
